This note sets out measurements from ChEMBL document CHEMBL2169770, “The discovery and optimization of a novel class of potent, selective, and orally bioavailable anaplastic lymphoma kinase (ALK) inhibitors with potential utility for the treatment of cancer” (J Med Chem, 2012).

The nature of series [1]: Volume of distribution at steady state in rat. It is filed as ADME, organism-based. Conditions: in vivo, read-out: Vdss.
Series [2] is described as follows: Oral bioavailability in rat. The series is classed as ADME, organism-based. Conditions: in vivo.
A short description of series [3]: Oral bioavailability in Beagle dog. It is filed as ADME, organism-based, Canis lupus familiaris. Conditions: in vivo.
Series [4] is described as follows: Volume of distribution at steady state in Beagle dog. Conditions: in vivo, read-out: Vdss. The series is classed as ADME, organism-based, Canis lupus familiaris.

Consider `CC(C)NC(=O)[C@H]1CC[C@@H](n2/c(=N/C(=O)c3cc(F)cc(F)c3)[nH]c3ccc(CN4CCC(C(C)(C)O)CC4)cc32)CC1`, for which the Vd in series [1] stood at 5.42 L/kg; in series [4] it was 1.82 L/kg. The results for the bioavailability in series [2] and in series [3] were 11% and 71%, respectively.

Consider `CC(C)NC(=O)[C@H]1CC[C@@H](n2/c(=N/C(=O)c3ccc(F)cc3)[nH]c3ccc(CN4CCC(C(C)(C)O)CC4)cc32)CC1`, for which the Vd in series [1] is 6.4 L/kg; in series [4], 1.58 L/kg. Further, the bioavailability (commonly dose-corrected exposure relative to a reference, in per cent) came out at 20% in series [2] and 52% in series [3].
